Experimental data from patent US20260327211A1, “MODULATORS OF A POTASSIUM CHANNEL AND OF TRPV1 CHANNEL AND USES THEREOF” (Bsense Bio Therapeutics Ltd., priority 2023, published 2026).
pEC50, pIC50: −log10 of the molar value. Values after ≈ are worked out from the molar mass of the structure shown. Read-outs that look alike come from different tables or passages of the source.

Key:
hTRPV1 = molecular target: T1, hTRPV1 (Homo sapiens, UniProt Q8NER1); test: TRPV1 HCS, Fluo-8 calcium flux, capsaicin activation, CHO cells expressing hTRPV1; assay type: cell-based
T1 construct: CDS of NM_080704.4, inserted into the multiple cloning site of pcDNA3.1(+); host or cells: CHO/hKv7.2/3
T1 sequence (Q8NER1 whole entry): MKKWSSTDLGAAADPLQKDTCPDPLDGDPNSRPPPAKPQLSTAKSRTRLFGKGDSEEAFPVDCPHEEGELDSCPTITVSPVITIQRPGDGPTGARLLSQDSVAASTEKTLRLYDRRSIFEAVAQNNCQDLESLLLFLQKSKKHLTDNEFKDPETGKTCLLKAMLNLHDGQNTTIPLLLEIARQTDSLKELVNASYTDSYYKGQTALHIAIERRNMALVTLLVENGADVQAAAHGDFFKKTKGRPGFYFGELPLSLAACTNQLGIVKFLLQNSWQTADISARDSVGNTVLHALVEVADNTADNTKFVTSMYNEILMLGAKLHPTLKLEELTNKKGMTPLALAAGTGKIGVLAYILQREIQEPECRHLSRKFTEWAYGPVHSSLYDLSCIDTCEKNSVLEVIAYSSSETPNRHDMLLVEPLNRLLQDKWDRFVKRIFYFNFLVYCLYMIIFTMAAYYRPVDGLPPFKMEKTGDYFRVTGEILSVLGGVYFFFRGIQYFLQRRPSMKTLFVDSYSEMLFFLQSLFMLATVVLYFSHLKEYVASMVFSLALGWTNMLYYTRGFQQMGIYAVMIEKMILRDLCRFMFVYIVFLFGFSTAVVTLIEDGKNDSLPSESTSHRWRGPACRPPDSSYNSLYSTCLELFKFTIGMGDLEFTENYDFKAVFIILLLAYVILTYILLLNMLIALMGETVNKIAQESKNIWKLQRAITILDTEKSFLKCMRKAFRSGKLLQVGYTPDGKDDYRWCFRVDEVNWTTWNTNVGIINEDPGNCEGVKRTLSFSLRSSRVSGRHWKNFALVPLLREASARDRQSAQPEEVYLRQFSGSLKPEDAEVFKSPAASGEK
Experimental: Cell culture: Chinese hamster ovary (CHO) cell-line cells with constitutive expression of human hTRPV1 channels (B'SYS GmbH, Switzerland) were cultured in F-12 nutrient mixture (Biological Industries) supplemented with 10% fetal bovine serum (Biological Industries) and 1% penicillin-streptomycin (Biological Industries) in a humidified 5% CO2 incubator at 37° C. To maintain the stable expression of hTRPV1, antibiotic selection (G418 500 μg/ml) was applied.
High content screen (HCS) using Fluo-8 No Wash Calcium flux Assay Kit: Fluo-8 No Wash Calcium Assay Kit (Abcam, ab112129) was used with CHO stably or transiently expressing TRPV1 to screen compounds against the hTRPV1 ion channel target. The cells were pre-loaded with Fluo-8AM which is membrane permeable. The AM groups of the Fluo-8AM were then being cleaved by intracellular esterase, trapping the Fluo8 in the cell. […] The relative fluorescence signal was calculated following background subtraction, comparing the fluorescence at each time point to its maximal level measured following Ionomycin application in the end.
According to optimization process to achieve uniform and consistent screening condition of molecules the following protocol was established: Cells were seeded in 384-well, black-walled, clear-bottomed, at a density of 5,000 cells per well 24 h before the assay conductance and incubated overnight in their normal growth medium. On the experiment day the medium was replaced in each well with HBSS, HEPES, and compound/vehicle (0.2% DMSO). Dye solution (prepared according to the manufacturer) was added to the wells and plates are incubated for 1.5 h light-protected in room temperature. The Tecan Spark plate reader injectors were then primed with capsaicin and Ionomycin for channel activation and data normalization, respectively. […] To calculate IC50 values, the data was fitted to sigmoidal regression line using Prism GraphPad. The fitting was constrained to a minimum of 0 and a maximal response of about 1 unless a different maximal response could be identified.

hKv7.2/3 = molecular target: T2, hKv7.2/3 (Homo sapiens, UniProt O43525+O43526); test: Kv7.2/7.3 HCS, FLIPR potassium (thallium) assay, CHO/hKv7.2/3; assay type: cell-based; conditions: for pEC50: Table 1, read-out: Kv7.2/7.3 IC50
T2 construct: host or cells: CHO
T2 sequence (O43525 whole entry): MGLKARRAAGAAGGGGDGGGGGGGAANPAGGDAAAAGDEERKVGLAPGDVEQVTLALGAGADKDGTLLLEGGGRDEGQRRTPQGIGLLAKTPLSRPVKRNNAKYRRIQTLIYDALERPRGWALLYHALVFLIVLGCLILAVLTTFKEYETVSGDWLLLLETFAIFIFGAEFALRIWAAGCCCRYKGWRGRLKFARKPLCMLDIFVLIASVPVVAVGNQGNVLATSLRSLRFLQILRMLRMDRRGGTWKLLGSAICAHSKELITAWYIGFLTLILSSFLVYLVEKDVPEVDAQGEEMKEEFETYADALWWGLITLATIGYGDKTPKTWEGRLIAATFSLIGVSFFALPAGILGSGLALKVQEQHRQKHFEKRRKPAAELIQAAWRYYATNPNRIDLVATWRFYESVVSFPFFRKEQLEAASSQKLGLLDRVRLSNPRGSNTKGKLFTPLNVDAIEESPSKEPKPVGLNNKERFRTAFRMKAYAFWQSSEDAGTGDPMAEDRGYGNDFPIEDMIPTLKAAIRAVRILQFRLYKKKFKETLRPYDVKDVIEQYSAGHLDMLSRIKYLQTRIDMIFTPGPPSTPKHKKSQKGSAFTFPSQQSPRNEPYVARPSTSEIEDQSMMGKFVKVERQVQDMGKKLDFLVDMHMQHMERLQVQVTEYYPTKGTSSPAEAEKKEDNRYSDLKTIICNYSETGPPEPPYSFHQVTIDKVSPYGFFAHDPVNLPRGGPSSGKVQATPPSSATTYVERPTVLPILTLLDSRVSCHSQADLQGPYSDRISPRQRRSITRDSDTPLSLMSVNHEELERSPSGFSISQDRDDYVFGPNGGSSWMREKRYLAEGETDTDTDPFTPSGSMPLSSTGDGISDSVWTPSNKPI
T2 sequence (O43526 whole entry): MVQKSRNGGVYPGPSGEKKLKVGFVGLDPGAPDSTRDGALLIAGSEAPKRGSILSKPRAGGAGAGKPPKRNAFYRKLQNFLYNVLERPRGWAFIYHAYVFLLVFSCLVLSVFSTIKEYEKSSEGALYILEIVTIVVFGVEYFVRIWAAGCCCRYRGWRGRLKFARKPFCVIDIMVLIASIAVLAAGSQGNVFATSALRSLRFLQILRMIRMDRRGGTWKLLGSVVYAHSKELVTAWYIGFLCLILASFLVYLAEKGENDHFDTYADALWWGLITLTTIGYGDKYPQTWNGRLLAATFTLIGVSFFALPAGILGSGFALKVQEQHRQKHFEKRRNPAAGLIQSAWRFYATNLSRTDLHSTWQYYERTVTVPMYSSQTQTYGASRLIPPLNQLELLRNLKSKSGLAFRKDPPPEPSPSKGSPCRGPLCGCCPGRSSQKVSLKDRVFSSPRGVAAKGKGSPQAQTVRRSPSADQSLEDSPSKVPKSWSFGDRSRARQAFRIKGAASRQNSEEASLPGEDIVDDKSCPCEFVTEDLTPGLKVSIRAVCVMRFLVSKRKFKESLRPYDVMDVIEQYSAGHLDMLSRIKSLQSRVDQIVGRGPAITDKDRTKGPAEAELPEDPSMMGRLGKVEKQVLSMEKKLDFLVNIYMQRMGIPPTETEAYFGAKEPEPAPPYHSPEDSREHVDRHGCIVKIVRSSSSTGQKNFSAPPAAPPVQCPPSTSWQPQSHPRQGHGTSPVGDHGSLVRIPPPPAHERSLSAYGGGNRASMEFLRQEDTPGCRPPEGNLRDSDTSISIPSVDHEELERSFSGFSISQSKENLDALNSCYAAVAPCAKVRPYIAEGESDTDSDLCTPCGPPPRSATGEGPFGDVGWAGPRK
Experimental: Cell culture: Chinese hamster ovary (CHO) cell-line cells with a constitutive expression of human Kv7.2/3 channels (B'SYS GmbH, Switzerland) were cultured in F-12 nutrient mixture (Biological Industries) supplemented with 10% fetal bovine serum (Biological Industries) and 1% penicillin-streptomycin (Biological Industries) in a humidified 5% CO2 incubator at 37° C. To maintain the stability of human Kv7.2/7.3 expression antibiotic selection was added (Puromycin 5 μg/ml).
High content screen (HCS) using FLIPR Potassium Assay Kit: A FLIPR Potassium Assay Kit (R8222 FLIPR Potassium Assay Explorer Kits, Molecular Devices) was used with the CHO/hKv7.2/3 cell line to screen molecules against the hKv7.2/7.3 ion channel target. The assay exploits the permeability of thallium ions (Tl+) through potassium (K+) channels. In this assay, Tl+ indicator dye is used to produce a bright fluorescent signal upon the binding to Tl+ conducted through the potassium channels. The intensity of the Tl+ signal is proportional to the number of potassium channels in the open state. Therefore, it provides a functional indication of the potassium channel activity. To activate the voltage-gate potassium channels, the cells were stimulated with a mixture of K+ and Tl+ to depolarize the cell membrane. The fluorescence increase in the assay represents the influx of Tl+ into the cell specifically through the potassium channel, providing a functional read-out of hKv7.2/3 activity using a fluorescent plate reader coupled with injectors used to activate the channels.
According to optimization process to achieve uniform and consistent screening conditions the following protocol was established: Cells were seeded in 384-well, black-walled, clear-bottomed Greiner #781091, at a density of 5000 cells per well 24 hours before the assay conductance and incubated overnight in their normal growth medium. On the experiment day the medium was replaced with HBSS, HEPES, and the test compound/vehicle (0.2% DMSO). Dye solution (prepared according to the manufacturer) was added to the plates, which were incubated for 1.5 h light-protected in room temperature. Tecan Spark reader plate injectors were primed with Tl+(1 mM Tl2SO4) or Tl++K+(1 mM Tl2SO4; 5 mM K2SO4) for channel activation and data correction. […] To calculate EC50 values, the data was fitted to sigmoidal regression using Prism GraphPad. The fitting was constrained to a minimum of 1 and a maximal response of about 3.6 unless a different maximal response could be clearly identified.

[1] = Human liver microsome metabolic stability; assay type: in vitro ADME; conditions: human liver microsomes; for microsomal CLint at 1 µM: read-out: HLM Clint; for HLM Clint: 1 µM
From the text: Liver microsomes which are subcellular particles derived from endoplasmic reticulum of hepatic cells were used for evaluating the tested compounds. These particles are rich in drug metabolizing enzymes, including the cytochrome p-450 family. Liver microsomes are a recommended test system for various in vitro drug metabolism and pharmacokinetics (DMPK) studies. CLint values lower than […] are considered suitable for drug development.
Liver Microsome Metabolic Stability Assay (NADPH): The liver microsome stability assay was evaluated through pre-incubation with HLMs. A liver microsome mixture (pooled from multiple donors) at a concentration of 0.5 mg/mL, and the test compound at a concentration of 1 μM, were warmed in the presence of a NADPH regenerating system (about 1.0 mM) at 37° C. Positive controls, including testosterone (a CYP3A4 substrate), propafenone (a CYP2D6 substrate), and diclofenac (a CYP2C9) substrate, were concurrently incubated with the HLMs, in the presence of the NADPH regenerating system (1.0 mM). Samples were extracted during incubation at multiple intervals: 0, 5, 15, 30, 45 and 60 minutes. To terminate the reactions, the samples were promptly mixed with cooled acetonitrile that included an internal standard (IS). An additional compound was incubated with the HLMs in the absence of the NADPH regeneration system, from which a sample was taken at the 60-minute interval.
The clearance of the test compound in the samples was subsequently analyzed by LC-MS/MS based on the peak area ratios of the analyte to the IS.
The following equation was used to calculate the microsome clearance: […]
Liver weight: 40 grams/kg, 30 grams/kg, 32 grams/kg, 20 grams/kg and 88 grams/kg, for rat, monkey, dog, human and mouse, respectively.

hERG = hERG (Homo sapiens, UniProt Q12809); test: hERG HCS, FLIPR potassium assay, CHO/hERG; assay type: cell-based; set-up: host or cells: CHO; conditions: Table 1; for pIC50: read-out: hERG IC50; for hERG IC50 (inhibition in parentheses): at highest concentration shown
Chain of hERG (Q12809 whole entry): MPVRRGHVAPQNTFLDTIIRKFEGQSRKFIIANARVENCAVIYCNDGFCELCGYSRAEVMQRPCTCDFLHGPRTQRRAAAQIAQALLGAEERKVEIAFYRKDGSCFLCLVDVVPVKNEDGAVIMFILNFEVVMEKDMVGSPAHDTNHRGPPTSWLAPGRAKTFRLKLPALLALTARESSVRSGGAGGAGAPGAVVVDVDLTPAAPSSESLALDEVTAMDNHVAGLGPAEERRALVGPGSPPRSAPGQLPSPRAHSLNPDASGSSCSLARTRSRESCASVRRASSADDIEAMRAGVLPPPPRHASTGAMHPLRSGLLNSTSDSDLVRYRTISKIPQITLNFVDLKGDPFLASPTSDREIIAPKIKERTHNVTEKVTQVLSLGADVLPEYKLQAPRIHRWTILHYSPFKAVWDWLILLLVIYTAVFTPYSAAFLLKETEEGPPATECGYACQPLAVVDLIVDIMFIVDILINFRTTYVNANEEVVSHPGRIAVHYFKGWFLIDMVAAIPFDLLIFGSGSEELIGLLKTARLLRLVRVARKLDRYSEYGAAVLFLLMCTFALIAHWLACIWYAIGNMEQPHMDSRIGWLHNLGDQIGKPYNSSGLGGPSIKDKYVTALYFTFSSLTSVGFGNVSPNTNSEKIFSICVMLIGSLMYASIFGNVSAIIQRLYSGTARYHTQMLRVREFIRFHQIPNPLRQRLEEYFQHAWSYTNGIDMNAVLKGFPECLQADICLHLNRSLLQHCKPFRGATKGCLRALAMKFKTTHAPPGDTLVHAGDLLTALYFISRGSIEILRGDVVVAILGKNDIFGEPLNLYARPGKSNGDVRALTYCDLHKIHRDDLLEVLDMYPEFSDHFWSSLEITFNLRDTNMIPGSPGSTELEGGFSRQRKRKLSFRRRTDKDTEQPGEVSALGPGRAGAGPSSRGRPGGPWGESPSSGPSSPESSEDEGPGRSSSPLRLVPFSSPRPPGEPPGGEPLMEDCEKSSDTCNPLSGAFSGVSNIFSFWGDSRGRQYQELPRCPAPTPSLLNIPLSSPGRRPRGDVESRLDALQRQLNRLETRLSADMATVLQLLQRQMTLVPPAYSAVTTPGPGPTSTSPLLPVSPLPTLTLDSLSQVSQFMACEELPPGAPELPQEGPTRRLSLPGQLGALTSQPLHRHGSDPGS
Experimental: Cell culture: Chinese hamster ovary (CHO) cell-line cells with a constitutive expression of human hERG channels (B'SYS GmbH, Switzerland) were cultured in F-12 nutrient mixture (Biological Industries) supplemented with 10% fetal bovine serum (Biological Industries) and 1% penicillin-streptomycin (Biological Industries) in a humidified 5% CO2 incubator at 37° C. To maintain the hERG expression stability of the CHO cell line, antibiotics selection (G418 […] and Hygromycin 500) was applied.
FLIPR Potassium Assay Kit: The FLIPR Potassium Assay Kit (R8222 FLIPR Potassium Assay Explorer Kits, Molecular Devices) was used with CHO/hERG cell line, for screening compounds against the hERG ion-channel off-target, as detailed hereinabove.
According to optimization process, to achieve a uniform and consistent screening condition of molecules, the following protocol was established: Cells were seeded in 384-well, black-walled, clear-bottomed, at a density of 7,500 cells per well 24 hours before the assay conductance and incubated overnight in their normal growth medium. On the experiment day the medium was replaced with HBSS, HEPES, and the tested compound/vehicle (0.2% DMSO). Dye solution (prepared according to the manufacturer) was added to the wells and plates were incubated for 1.5 hour light-protected in room temperature. The Tecan Spark plate-reader injectors were primed with Tl+(1 mM Tl2SO4) or Tl++K+(1 mM Tl2SO4; 10 mM K2SO4) for channel activation and data correction. […]. To calculate IC50 values, the data was fitted to sigmoidal regression using Prism GraphPad.

[2] = Log D, 1-octanol/buffer shake flask; assay type: physicochemical; conditions: pH 7.4
Experimental: The Log D assay was a miniaturized 1-octanol/buffer shake flask method followed by LC/MS/MS analysis, as follows.
The test compounds or control compounds Nadolol, Chlorpromazine Hydrochloride and Propranolol Hydrochloride were dissolved in 100% DMSO to obtain 10 mM solutions, which were transferred to 96-well polypropylene cluster tubes; 2 μL/well. 1-octanol saturated with 0.1 M phosphate buffer (149 μL/well) and 0.1 M phosphate buffer saturated with 1-octanol (149 μL/well) were added to the tubes, respectively, and each tube was vigorously mixed for 2 minutes and then shaked at a speed of 800 rpm at room temperature for 1 hour, followed by centrifugation at 4000 rpm for 5 minutes at room temperature. Thereafter, for the test compounds and the Chlorpromazine Hydrochloride and Propranolol Hydrochloride, the sample of the buffer layer was diluted by a factor of 50-fold and the sample of 1-octanol layer was diluted by a factor of 2000-fold with internal standard (IS) solution. For Nadolol, the sample of the buffer layer was diluted by a factor of 1000-fold and the sample of 1-octanol layer was diluted by a factor of 400-fold with internal standard (IS) solution. The samples were analyzed using a triple quadrupole mass spectrometer. Peak areas were corrected by dilution factors and embedded internal standard, and the ratio of the corrected peak areas was used to calculate the Log D value. The Log D value for each compound will be calculated by the following equation: […]

Kinetic solubility = assay type: physicochemical; conditions: Table 1; for solubility kinetic: hhbs buffer, aqueous buffer, read-out: Kinetic Sol.
Experimental: Solubility measurements were performed prior to each in vitro assay to ensure accurate dose response and reproducibility. Briefly, each compound was dissolved to 60 mM in DMSO and calibration curve was performed from 1.5-200 μM using absorbance spectra analysis and determination of λmax. Calibration curve served as the readout for all following assays. The 60 mM stock solution was used to make a 120 μM target concentration of 0.2% DMSO in the appropriate buffer of the in vitro related assay (i.e. HHBS buffer). Solubilized compounds were vortex for 10 minutes followed by centrifugation for 15 minutes in 5000 RPM and the supernatant was recovered for absorbance spectra analysis between 200-400 nm.

[3] = cells expressing TRPV1, read-out: TRPV1 IC50
[4] = 1-octanol/phosphate buffer, read-out: LogD

| SMILES | pIC50 (hTRPV1; [3]) | pEC50 (hKv7.2/3) | microsomal CLint at 1 µM [1] [µL/min/mg] | logD [2, 4] | solubility kinetic (Kinetic solubility) [µM] | also measured |
| --- | --- | --- | --- | --- | --- | --- |
| CC(C)c1cc(Cl)cc(Cl)c1C(O)c1ccc(F)c(CC(=O)NCC2(O)CCC2)c1 (single isomer, unassigned) [Compound 533p1] | – | – | – | – | – | TRPV1 modulation (words) (hTRPV1): inhibits hTRPV1; TRPV1 modulation (words) (hTRPV1; listed as 533P1): TRPV1 inhibition; Kv7.2/3 activation (words) (hKv7.2/3): lower; Kv7.2/3 activation (words) (hKv7.2/3; listed as 533P1): primarily activation of Kv7.2/3 |
| COC[C@@H](CO)NC(=O)Cc1cc(Sc2c(Cl)cc(Cl)cc2C(C)C)ccc1F [Compound 414] | 5.96 | 5.74 | 686 | – | – | pIC50 (hTRPV1; Table 2, read-out: Experimental IC50): 5.96; pIC50 (hERG): < 5.60; hERG IC50 (inhibition in parentheses) (hERG): 0% |
| CC(C)c1cc(Cl)cc(Cl)c1C(O)c1ccc(F)c(CC(=O)NCC(C)(C)O)c1 (centres unmarked) [Compound 417] | 4.58 | 5.25 | 89.1 | – | – | pIC50 (hERG): < 5.60; hERG IC50 (inhibition in parentheses) (hERG): 0% |
| CC(C)c1cc(Cl)cc(Cl)c1Sc1ccc(F)c(CC(=O)N[C@H]2C[C@H](O)C2)c1 [Compound 480] | – | – | – | – | – | pIC50 (hTRPV1): 5.85 |
| Cc1cn(-c2ccc(F)c(CC(=O)NCCOCCOCC(C)(C)O)c2)c2c(Cl)cc(Cl)cc12 [Compound 541] | 5.49 | 5.33 | – | – | – | logD [2]: 4.78; Kinetic Sol. (Kinetic solubility): 2; HLM Clint [1]: 772.2 µL/min/mg |
| Cc1cn(-c2ccc(F)c(CC(=O)NCCO)c2)c2c(Cl)cc(Cl)cc12 [Compound 552] | 6.00 | 4.92 | – | – | – | logD [2]: 4.77; Kinetic Sol. (Kinetic solubility): 5; HLM Clint [1]: 27.2 µL/min/mg |
| CC(C)c1cc(Cl)cc(Cl)c1C(=O)c1ccc(F)c(CC(=O)NCC2(O)CCC2)c1 [Compound 569] | 5.00 | 5.52 | 120 | 4.47 | 27 (≈ 12.2 µg/mL) | – |
| CC(C)c1cc(Cl)cc(Cl)c1C(=O)c1ccc(F)c(CC(=O)NCC2(O)CC2)c1 [Compound 573] | 5.52 | 5.15 | 441 | 4.34 | 24 (≈ 10.5 µg/mL) | – |
| O=C(Cc1cncc(-n2cc(Cl)c3cc(Cl)cc(Cl)c32)c1)NCCO [Compound 649] | 5.48 | 5.28 | 27.3 | 4.19 | 10 (≈ 3.99 µg/mL) | – |
| O=C(Cc1cncc(-n2cc(Cl)c3cc(Cl)cc(Cl)c32)c1)N[C@@H]1COC[C@@H]1O [Compound 662] | – | 5.10 | 38.1 | 3.49 | 6 (≈ 2.64 µg/mL) | TRPV1 IC50 (hTRPV1; cells expressing TRPV1): agonist |
| O=C(Cc1cncc(-n2cc(Cl)c3cc(Cl)cc(Cl)c32)c1)N[C@H]1COC[C@@H]1O [Compound 663] | – | 5.23 | 53.6 | 3.52 | 26 (≈ 11.5 µg/mL) | – |
